Test results reported in patent US20150073033A1, “BIOMARKERS FOR CANCER CHARACTERIZATION AND TREATMENT” (Board of Regents, The University of Texas System, priority 2011, published 2015).
“Also recorded” adds a separate entry of the source.

Assays:
β-catenin = assay: EGF-induced β-catenin Tyr/Y333 phosphorylation, immunoprecipitation and immunoblotting; type: cell-based, human
Experimental: FIG. 2: c-Src phosphorylates β-catenin at Y333 upon EGFR activation. a: U87/EGFR cells were treated with SU6656 (4 μM) or an Abl inhibitor (0.2 μM) for 30 min before EGF treatment for 6 h. b: The indicated cells were treated with or without EGF for 6 h. c: β-catenin was immunoprecipitated from the nuclear fractions of U87/EGFR cells treated with or without EGF for 6 h. d, g: U87/EGFR cells transiently expressing the indicated FLAG-tagged β-catenin proteins were treated with or without EGF for 6 h. e: In vitro kinase assays were performed with purified active c-Src and purified β-catenin proteins. f: Immobilized GST-β-catenin proteins were mixed with purified His-PKM2 proteins in the presence or absence of active c-Src.
(§1) FIG. 16: EGF induces the nuclear translocation of PKM2, c-Src-dependent […] Y333 phosphorylation, and a c-Src-dependent interaction between PKM2 and β-catenin in primary GBM cells. […] Nuclear PCNA and cytoplasmic tubulin were used as controls.

[1] = test system: PKM2-β-catenin interaction; assay: EGF-induced association of β-catenin with PKM2 in primary GBM cells (co-IP); type: cell-based; conditions: GSC11 and GSC23 human primary GBM cells; SU6656 4 μM 30 min before EGF 100 ng/mL 6 h
Source text: as §1

c-Src = c-Src (Homo sapiens, UniProt P12931); assay: EGF-induced c-Src activation (Y418 phosphorylation), immunoblotting; type: cell-based; conditions: U87/EGFR cells; SU6656 4 μM 30 min before EGF 100 ng/mL 6 h
Experimental: (§2) Immunofluorescence analyses of endogenous PKM2 or transiently expressed FLAG-PKM1 were performed with the indicated antibodies. […] Immunoblotting analyses were performed with the indicated antibodies. Nuclear PCNA was used as controls for immunoblotting analyses. c: An equal volume of cytosolic and nuclear fractions were prepared from U87/EGFR cells treated with or without EGF (100 ng/mL) for 6 h. Ten microliters of protein from cytosolic and nuclear fractions were used for immunoblotting analyses with the indicated antibodies. d: Nuclear fractions were prepared from U251 cells pretreated with LY290042 (30 μM), SU6656 (4 μM), SP600125 (25 μM), and U0126 (20 μM) for 30 min before EGF (100 ng/mL) for 6 h. Immunoblotting analyses were performed with the indicated antibodies. Nuclear PCNA and cytoplasmic tubulin were used as controls. e: U87/EGFR cells were pretreated with LY290042 (30 μM), SU6656 (4 μM), SP600125 (25 μM), and U0126 (20 μM) for 30 min before EGF (100 ng/mL) for 6 h. Immunoblotting analyses were performed with the indicated antibodies.
(§3) Extraction of proteins with a modified buffer from cultured cells was followed by immunoprecipitation and immunoblotting with corresponding antibodies, as described previously (Lu et al., 1998).

U87/EGFRvIII cells = assay: Intracranial U87/EGFRvIII xenograft, intratumoral SU6656; type: in vivo, athymic nude mice
Experimental: FIG. 19: c-Src inhibition suppresses tumorigenesis and reduces β-catenin Y333 phosphorylation and cyclin D1 expression in tumor tissues. a: U87/EGFRvIII (5×10^5) cells were intracranially injected into athymic nude mice. After 5 d, seven mice were sacrificed to examine tumor growth; the remaining mice, whose tumors were intracranially injected with SU6656 (0.015 mg/kg in 5 μL of DMSO) or DMSO every three days, were sacrificed at day 15. […] C: Immunoblotting analyses of the indicated tumor tissues were performed with the indicated antibodies.
GBM cells (5×10^5) were intracranially injected (in 5 μL of DMEM per mouse), with or without regulation of β-catenin or PKM2 expression, into 4-week-old female athymic nude mice. The intracranial injections were performed, as described in a previous publication (Gomez-Manzano et al., 2006). Seven mice per group in each experiment were included. Animals injected with U87/EGFRvIII or GSC 11 cells were sacrificed 2 weeks or 30 days after glioma cell injection, respectively. The brain of each mouse was harvested, fixed in 4% formaldehyde, and embedded in paraffin. Tumor formation and phenotype were determined by histologic analysis of H & E-stained sections.
For doxycycline induction studies, seven mice were sacrificed 14 days after GBM cell injection to examine tumor growth, whereas the remaining 14 mice in two groups were fed with or without water containing 800 μg/mL doxycycline. The water containing doxycycline was changed every three days. The mice in these two groups were sacrificed at day 30. For the SU6656 treatment studies, seven mice were sacrificed five days after U87/EGFRvIII cell injection to examine tumor growth, whereas the remaining 14 mice in two groups were treated with either DMSO or SU6656. SU6656 (0.015 mg/kg in 5 μL of DMSO) was intracranially injected into the tumor every three days, and the mice in both groups were sacrificed at day 14 after GBM cell injection.

PKM2 = assay: EGF-induced nuclear translocation of PKM2 (cell fractionation, immunoblotting, immunofluorescence); type: cell-based, human; conditions: U87/EGFR (and U251) cells; 30 min pretreatment before EGF 100 ng/mL; LY290042 30 μM, SU6656 4 μM, SP600125 25 μM, U0126 20 μM, AG1478 1 μM, cycloheximide 100 μg/mL
Experimental: Immunoblotting analyses (b, b) were performed with the indicated antibodies. Nuclear PCNA and cytoplasmic tubulin were used as controls. a: The indicated cells were immunostained with an anti-PKM2 antibody.
Immunoblotting and immunoprecipitation analyses were performed with the indicated antibodies. a: Nuclear fractions were prepared from U87/EGFR cells pretreated with LY290042 (30 μM), SU6656 (4 μM), SP600125 (25 μM), and U0126 (20 μM) for 30 min before EGF (100 ng/mL) for 6 h. Nuclear PCNA and cytoplasmic tubulin were used as controls. b: U87/EGFR cells were pretreated with or without U0126 (20 μM) for 30 min before EGF (100 ng/mL) for 6 h. Immunofluorescence analyses were performed with the indicated antibodies. Nuclei were stained with Hoechst 33342 (blue). c: U251 cells were stably transfected with a vector with or without expressing FLAG-ERK2 K52R (left panel) or transiently transfected with vectors expressing MEK1 Q56P and indicated FLAG-tagged ERK2 proteins (right panel). The cells were treated with or without EGF (100 ng/mL) for 6 h, and the total cell lysates and nuclear fractions were prepared. d: FLAG-PKM2 or FLAG-PKM1 was immunoprecipitated with an anti-FLAG antibody from U87/EGFR cells treated with or without EGF (100 ng/mL) for 30 min. e: Bacterially-purified GST-ERK2 immobilized on glutathione agarose beads was mixed with or without purified His-PKM2. GST pull-down analyses were performed. Ten percent of total His-PKM2 was used as an input. f: U87/EGFR cells transfected with vectors expressing the indicated FLAG-tagged ERK proteins were treated with or without EGF (100 ng/mL) for 30 min. g: U87/EGFR cells expressing the indicated FLAG-PKM2 proteins were treated with or without EGF (100 ng/mL) for 30 min.
as §2
Cytosolic and nuclear fractions were prepared. Immunoblotting analyses were performed with the indicated antibodies. b: U87/EGFR cells with depleted endogenous PKM2 and reconstituted expression of RNAi-resistant WT rPKM2 or rPKM2 S37A were treated with or without EGF (100 ng/mL) for 6 h. Total cell lysates (left panel) and nuclear fractions (right panel) were prepared.

IKKβ = molecular target: T1, IKKβ (Homo sapiens, UniProt O14920); conditions: small molecules IKKβ inhibitors; values from the cited references; read-out: IC50 (half maximal inhibitory concentration); cited from earlier work
T1 sequence (O14920 1-756): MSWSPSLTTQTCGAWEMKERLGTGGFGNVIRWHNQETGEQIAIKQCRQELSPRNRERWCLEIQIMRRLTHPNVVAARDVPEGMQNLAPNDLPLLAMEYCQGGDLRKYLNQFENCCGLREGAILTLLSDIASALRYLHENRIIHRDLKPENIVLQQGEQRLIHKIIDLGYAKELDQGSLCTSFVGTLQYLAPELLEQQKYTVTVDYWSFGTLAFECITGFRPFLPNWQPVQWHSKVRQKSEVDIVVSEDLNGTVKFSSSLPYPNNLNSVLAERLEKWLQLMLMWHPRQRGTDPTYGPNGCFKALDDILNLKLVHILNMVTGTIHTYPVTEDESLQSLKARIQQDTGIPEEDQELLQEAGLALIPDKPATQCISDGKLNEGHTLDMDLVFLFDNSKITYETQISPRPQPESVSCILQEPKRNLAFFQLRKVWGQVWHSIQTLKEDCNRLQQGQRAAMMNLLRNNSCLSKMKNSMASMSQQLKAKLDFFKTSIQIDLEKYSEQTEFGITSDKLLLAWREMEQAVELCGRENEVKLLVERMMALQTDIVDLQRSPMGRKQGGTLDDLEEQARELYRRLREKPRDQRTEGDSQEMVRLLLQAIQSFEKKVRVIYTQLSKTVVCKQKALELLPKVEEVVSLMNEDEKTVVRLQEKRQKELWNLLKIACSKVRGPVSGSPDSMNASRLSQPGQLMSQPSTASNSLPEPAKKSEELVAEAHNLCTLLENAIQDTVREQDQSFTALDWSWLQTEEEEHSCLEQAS

PKM2 expression = assay: EGF-induced PKM2 upregulation, immunoblotting; type: cell-based, human; conditions: U87/EGFR cells; pretreatment before EGF 100 ng/mL 12 h; AG1478 1 μM, cycloheximide 200 μg/mL, Bis-I 2 μM, Go6976 2 μM, NF-κB activation inhibitor II 7 μM, AKT inhibitor 10 μM, TBB 50 μM, U73122 2 μM
Experimental: FIG. 56: EGFR activation results in upregulation of PKM2 expression. A-D: Immunoblotting analyses were performed with or without the indicated antibodies. A: The indicated cell lines were treated with EGF (100 ng/mL) for 12 h. B: U87 cells were stably transfected with plasmids expressing EGFR or EGFRvIII. […] D: U87/EGFR cells were pretreated with or without cycloheximide (CHX) (200 μg/mL) for 30 min before EGF (100 ng/mL) treatment for 12 h. […] The relative mRNA levels of PKM2 and PKM1 were normalized to the levels of untreated cells and β-actin mRNA. Data represent the mean±SD of three independent experiments.
FIG. 57: EGF increases PKM2 expression in a PKC- and NF-κB-dependent manner. A-D, H: Immunoblotting analyses were performed with the indicated antibodies. […] ChIP assay was performed with an anti-RelA antibody for immunoprecipitation, followed by PCR with PKM promoter-specific primers. F: An oligonucleotide containing the putative WT or mutated NF-κB binding sequence was labeled using [γ-^32P] ATP and T4 polynucleotide kinase. […] Samples were subjected to 5% polyacrylamide gel electrophoresis, and the dried gel was exposed to x-ray film. […] The relative levels of luciferase activity were normalized to the levels of untreated cells and to the levels of luciferase activity of the Renilla control plasmid. Data represent the mean±standard deviation of three independent experiments.
FIG. 58: PKCε downstream from PLCγ1, rather than TAK1, activates IKKβ and subsequently increases PKM2 expression. […] B: U87/EGFR cells were treated with TNFα (10 ng/mL) for the indicated time. C: U87/EGFR cells were treated with or without EGF (100 ng/mL) or TNFα (10 ng/mL) for 4 h. […] HIF1α was immunodepleted from the cell lysates by incubation with an anti-HIF1α antibody, which was followed by a ChIP assay with an anti-FLAG antibody for immunoprecipitation of FLAG-RelA and PCR analysis with PKM promoter-specific primers. […] F: 293T cells were transiently transfected with constitutively active (+) or kinase-dead (−) PKC mutants. […] H, I: 293T cells were transiently transfected with the indicated plasmids.

ERK1/2 = assay: EGF-induced ERK1/2 phosphorylation, immunoblotting; type: cell-based, human; conditions: U87/EGFR cells; AG1478 1 μM or U0126 20 μM 30 min before EGF 6 h
Experimental: as §2, §3

[2] = SU6656 0.015 mg/kg intratumoral every three days

Sequence of c-Src (P12931 whole entry): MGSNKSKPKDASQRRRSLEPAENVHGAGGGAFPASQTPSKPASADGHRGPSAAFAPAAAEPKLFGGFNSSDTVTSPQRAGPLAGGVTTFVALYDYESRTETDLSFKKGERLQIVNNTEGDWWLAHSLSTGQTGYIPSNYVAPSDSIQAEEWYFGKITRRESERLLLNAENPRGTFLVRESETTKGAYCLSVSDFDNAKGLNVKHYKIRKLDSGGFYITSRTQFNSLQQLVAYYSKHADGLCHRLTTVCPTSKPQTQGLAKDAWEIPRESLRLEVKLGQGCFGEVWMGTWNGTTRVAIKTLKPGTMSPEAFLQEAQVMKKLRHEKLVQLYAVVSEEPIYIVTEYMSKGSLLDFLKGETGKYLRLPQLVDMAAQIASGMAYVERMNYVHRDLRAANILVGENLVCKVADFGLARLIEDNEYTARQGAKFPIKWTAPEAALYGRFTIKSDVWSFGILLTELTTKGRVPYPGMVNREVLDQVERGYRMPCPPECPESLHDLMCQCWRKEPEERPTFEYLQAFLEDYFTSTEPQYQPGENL

CN(C)S(=O)(=O)c1ccc2c(c1)/C(=C/c1cc3c([nH]1)CCCC3)C(=O)N2 [SU6656]
EGF-induced phosphorylation of β-catenin Y333 (β-catenin; GSC11 and GSC23 human primary GBM cells, SU6656 4 μM 30 min before EGF 100 ng/mL 6 h): blocked | EGF-induced Tyr phosphorylation of β-catenin (β-catenin; U87/EGFR cells, SU6656 4 μM or Abl inhibitor 0.2 μM 30 min before EGF 6 h): blocked | EGF-induced association of β-catenin with PKM2 [1]: blocked | EGF-induced activation/phosphorylation of c-Src (Y418) (c-Src): completely abrogated; also recorded: blocked | tumor growth (U87/EGFRvIII cells; SU6656 0.015 mg/kg in 5 μL DMSO intratumoral every three days vs DMSO): significantly blocked tumor growth | cyclin D1 expression in tumor tissue (U87/EGFRvIII cells; [2]): inhibited | phosphorylation level of c-Src Y418 in tumor tissue (U87/EGFRvIII cells; [2]): reduced | phosphorylation level of β-catenin Y333 in tumor tissue (U87/EGFRvIII cells; [2]): reduced | EGF-induced nuclear accumulation/translocation of PKM2 (PKM2): only inhibition of MEK/ERK abrogated

O=C(Nc1cc(C(F)(F)F)cc(C(F)(F)F)c1)c1cc(Cl)ccc1O [IMD-0354]
IC50 (IKKβ): 280 to 3000 nM

Cc1cc(N)ccc1N=Nc1ccc(S(=O)(=O)CCOS(=O)(=O)O)cc1 [NSC 676914]
IC50 (IKKβ): 17000 nM

O=C(N/N=C/c1ccc([N+](=O)[O-])cc1)c1ccc2ccccc2c1 [LASSBio-1524]
IC50 (IKKβ): 20000 nM

C[C@@H]1C[C@@H]([C@H](O)CC2CC(=O)NC(=O)C2)C(=O)[C@@H](C)C1 [cycloheximide]
EGF-induced PKM2 upregulation/expression (PKM2 expression): inhibited | EGF-induced nuclear accumulation/translocation of PKM2 (PKM2): did not inhibit

O=C(Nc1cc(Cl)cc2c1[nH]c1cnccc12)c1cccnc1 [PS1145]
IC50 (IKKβ): 88 nM

COc1cc2ncnc(Nc3cccc(Cl)c3)c2cc1OC [AG1478]
EGF-induced phosphorylation of ERK1/2 (ERK1/2): blocked | EGF-induced PKM2 upregulation/expression (PKM2 expression): blocked; also recorded: abrogated | EGF-induced nuclear accumulation/translocation of PKM2 (PKM2): abrogated

C[C@]1(CO)CN(c2cc(C(=O)Nc3ccc4c(c3)-c3c(c(C(N)=O)nn3-c3ccc(F)cc3)CC4)c(Cl)cn2)C[C@@]1(C)CO [PF-184]
IC50 (IKKβ): 37 nM
